{
  "source": "patent US20140179798A1",
  "about": "“N1,N4-BIS(BUTA-1,3-DIENYL)BUTANE-1,4-DIAMINE PHARMACEUTICAL COMPOSITIONS AND METHODS THEREOF” (Wisconsin Alumni Research Foundation, priority 2006, published 2014)",
  "key": {"[1]": {"system": "DU-145 human prostate cancer cells", "test": "DCFH (DCF) oxidation assay of ROS, DCF/DNA fluorescence", "type": "cell-based", "conditions": "for DCF/DNA Fluor, units: DU-145, DMEM + F(5)", "procedure": "(§1) It is well-accepted in the art that androgen, at physiological concentrations, induces ROS production in androgen dependent prostate cancer cells. A 2′,7′-dichlorodihydrofluorescein diacetate (DCF) oxidation assay was used to measure the ratio of oxidized DCF:DNA fluorescence which is an accepted measure of ROS levels in prostate cell lines.\nThe LNCaP human prostate cancer cells were grown in an androgen-depleted medium of 1% FBS and 4% charcoal stripped FBS, (F1/C4) and in the presence or absence of 1 nM synthetic androgen analog R1881 with or without 15 μM antioxidant α-tocopherol (vitamin E) pretreatment.\nBE-3-3-3 is known to induce SSAT enzyme activity in various cell lines including androgen-dependent LNCaP and androgen-independent DU-145 prostate cancel cells. DU-145 cells were treated with increasing concentrations of BE-3-3-3 for 72 hours. Oxidative stress was measured using 96-well plate based 2′7′-dichlorfluorescein diacetate dye (“DCF”) oxidation assay. Each data point is an average of qty. 6 identically-treated wells repeated twice in triplicates.\nDCFH oxidation assay. The 96-well cultures or freshly re-sected animal or human tissues were assayed for estimation of ROS levels in intact cells using the dye 2′,7′ -dichlorofluorescein diacetate (DCF) (Molecular Probes, Inc., Eugene, Oreg.). Re-sected tissues or cell cultures were washed with 200 μL Kreb's Ringer buffer (116 mM NaCl, 4.2 mM KCl, 2.5 mM CaCl2, 1.6 mM NaH2PO4, 1.2 mM MgSO4, 22 mM NaHCO3, and 11 mM D-glucose), pre-warmed to 37° C., incubated at 37° C. in 100 μL Kreb's Ringer buffer containing 10 μg/mL (final concentration) DCF dye for 45 minutes. Each 96-well culture plate was scanned on a CytoFluor 2350™ plate scanner (Applied Biosystems, Foster City, Calif.) using the 485 excitation/530 emission frequencies. […]\n(§2) was added to each well 45 minutes and to all tissues 60 minutes before fluorescence measurements. The DNA fluorescence was determined 360 nm excitation/460 nm emission. All DCF or Hydroethidine fluorescence were normalized to DNA fluorescence for proper quantitation of oxidative stress."}, "[2]": {"system": "LNCaP human prostate cancer cells", "test": "DCFH (DCF) oxidation assay of ROS, DCF/DNA fluorescence", "type": "cell-based", "conditions": "for DCF/DNA Fluor, units: DMEM + (F1/C4)", "procedure": "as §1, with “lines. […]” for “lines.”\nResults were determined using DCF oxidation assay methods. Each data point is an average of readings from qty. 6 wells repeated twice in triplicates.\nDCFH oxidation assay. The 96-well cultures or freshly re-sected animal or human tissues were assayed for estimation of ROS levels in intact cells using the dye 2′,7′ -dichlorofluorescein diacetate (DCF) (Molecular Probes, Inc., Eugene, Oreg.). Re-sected tissues or cell cultures were washed with 200 μL Kreb's Ringer buffer (116 mM NaCl, 4.2 mM KCl, 2.5 mM CaCl2, 1.6 mM NaH2PO4, 1.2 mM MgSO4, 22 mM NaHCO3, and 11 mM D-glucose), pre-warmed to 37° C., incubated at 37° C. in 100 μL Kreb's Ringer buffer containing 10 μg/mL (final concentration) DCF dye for 45 minutes. Each 96-well culture plate was scanned on a CytoFluor 2350™ plate scanner (Applied Biosystems, Foster City, Calif.) using the 485 excitation/530 emission frequencies. Each tissue sample was scanned.\nDNA Assay. Fifty μL of Kreb's Ringer Buffer (40 ug/mL) containing Hoechst 33342 dye, which contains\nas §2"}, "[3]": {"system": "polyamine and acetyl polyamine levels in LNCaP human prostate cells", "test": "HPLC quantitation of polyamine and acetyl polyamine levels", "type": "cell-based", "excerpt": "Each data point is an average of 2 determinations of cell pellets collected from qty. 3 independent experiments.\nIt can be stated that FIGS. 5A-5E support the conclusion that R1881 treatment increases SSAT mRNA levels while enhancing SSAT enzyme activity."}, "[4]": {"system": "prostate tissue in TRAMPxFVB animals", "test": "Hydroethidine (HEt) dye oxidation in prostate sections in vivo", "design": "species or system mouse", "conditions": "20-week-old TRAMPxFVB, 6 administrations of 25 mg/kgBW, sacrificed 2 weeks after treatment, HEt 8 mg/kgBW i.v.", "procedure": "A method using hydroethidine (HEt) dye oxidation was standardized to observe oxidative stress in prostate tumors in vivo. HEt oxidizes to 2-hydroxy ethidium specifically by a ROS(41). The 2-hydroxy ethidium fluoresces at 488 nm excitation and 595 nm emission frequencies. The HEt dye may be safely injected into animals at least 1 hour before sacrifice. Twenty-week old TRAMPxFVB animals were injected with HEt (8 mg/kgBW) 1 hour before sacrifice. After sacrifice, prostate glands were collected, formalin-fixed and paraffin-embedded. Paraffin blocks were microtome-sectioned, and the tissues were deparaffinized, observed using fluorescence microscopy, and analyzed using digital image analysis.\nThe picture shown in FIGS. 7A-7D were taken at 20× magnification using an Olympus BH-2 fluorescence microscope using 480 nm excitation/600 nm emission filters coupled with a Sony DSC-V3 digital camera set at F2.8 and 30 sec. exposure.\nHydroethidine Assay. Hydroethidine dye was dissolved in DMSO (100 mg/ml) and diluted in isotonic saline to 1 mg/ml before injection. […] Microtome sections of the blocks were mounted on slides and were quantitated for fluorescence at 488 nm excitation/595 nm emission frequencies."}, "[5]": {"system": "TRAMP male mice (spontaneous prostate tumors)", "test": "Overall survival of TRAMP mice", "type": "in vivo, mouse"}, "[6]": {"system": "TRAMPxFVB male mice (spontaneous prostate tumors)", "test": "Overall survival of TRAMPxFVB mice", "type": "in vivo, mouse", "excerpt": "In the study using the TRAMPxFVB mice, qty. 8 animal were in the MDL 72,527-treated group, and qty. 8 mice were in the vehicle-treated group. Since these animals start prostate tumor development at an earlier age than do the TRAMP animals, treatment began at 8 weeks of age. Treatment included qty. […] Over 60% of the MDL 72,527-treated TRAMPxFVB mice survived at least 8 weeks after the end of the therapy, and at least 6 weeks after the death of the entire group of control vehicle-treated animals."}, "[7]": {"system": "TRAMPxFVB mice (palpable prostate tumor)", "test": "Time to palpable tumor development in TRAMPxFVB mice", "type": "in vivo, mouse", "excerpt": "Signs of palpable prostate tumor development were monitored twice every week."}, "[8]": {"system": "Androgen Receptor", "test": "Western blot analysis of Androgen Receptor", "type": "in vivo, mouse", "conditions": "TRAMPxFVB mice"}, "[9]": {"test": "Tolerability and body weight in TRAMPxFVB mice", "conditions": "25 mg/kgBW"}, "[10]": {"system": "SSAT mRNA in LNCaP human prostate cancer cells", "test": "qRT-PCR quantitation of SSAT mRNA normalized to GAPDH mRNA", "type": "cell-based", "conditions": "1 nM R1881, 96 hours", "excerpt": "Each data point is an average of readings from qty. six identically-treated wells repeated twice in triplicates. […] It can be thus postulated that androgen-induced SSAT gene expression is a significant contributor to cellular ROS production in androgen-dependent prostate cancer cells."}, "[11]": {"system": "SSAT gene expression in LNCaP cells", "test": "DNA microarray analysis of gene expression (Affymetrix Genechip Arrays)", "type": "cell-based, human", "conditions": "1 nM R1881, 96 hours", "procedure": "As shown schematically in FIG. 1, unusually high polyamine levels in prostate cells and high induction of SSAT may induce large increases in ROS levels. A DNA microarray analysis of gene expression in control untreated LNCaP cells and cells treated with 1 nM androgen analog R1881 for 96 hours was performed twice using Affymetrix Genechip Arrays. In both experiments, SSAT was clearly identified as being highly over-expressed in R1881 treated with LNCaP cells as compared to untreated control cells. Among the list of genes that are over-expressed (more than 10-fold over the control), SSAT was the only enzyme connected to the ROS-generating pathway."}, "[12]": {"conditions": "1 μM BE-3-3-3 + 25 μM MDL 72,527"}, "[13]": {"conditions": "LNCaP, 24 h pretreatment 25 μM MDL 72,527 then 1 nM R1881 96 h"}},
  "note": "Entries after “also recorded” stand apart in the source; their conditions may differ.",
  "data": [
    {"smiles": "C=C=CCNCCCCNCC=C=C", "note": "[MDL 72,527]", "values": [
      {"measurement": "DCF/DNA Fluor, units", "setting": "[1]; [12]", "result": 0.26, "unit": "units"},
      {"measurement": "androgen (R1881) induced production of ROS", "setting": "[2]; 25 μM MDL 72,527 pretreatment, increasing R1881 concentration 96 hours", "result": "effectively blocks androgen induced production of ROS"},
      {"measurement": "DCF/DNA Fluor, units", "setting": "[2]; [12]", "result": 1.87, "unit": "units"},
      {"measurement": "N-acetyl-spermidine level", "setting": "[3]; [13]", "result": "significant increase"},
      {"measurement": "N-acetylspermine level", "setting": "[3]; [13]", "result": "significant increase"},
      {"measurement": "R1881-induced increase in putrescine level", "setting": "[3]; [13]", "result": "almost completely blocked the induced increase"},
      {"measurement": "R1881-induced increase in spermidine level", "setting": "[3]; [13]", "result": "almost completely blocked the induced increase"},
      {"measurement": "spermine level", "setting": "[3]; [13]", "result": "without appreciably changing"},
      {"measurement": "APAO activity in cells", "setting": "[3]; LNCaP, MDL 72,527 at 25 μM", "result": "efficiently and effectively blocked APAO activity"},
      {"measurement": "N-Ac-spermine level", "setting": "[3]; LNCaP, treated with the compound (25 μM, 120 hours), without R1881", "result": "insignificantly small increase"},
      {"measurement": "effect on SSAT gene expression and/or enzymatic activity", "setting": "[3]; androgen-treated LNCaP cells, 25 μM MDL 72,527", "result": "no material effect"},
      {"measurement": "HEt dye oxidation (fluorescence) in prostate section, oxidative stress in vivo", "setting": "[4]", "result": "less HEt fluorescence; also recorded: no dye oxidation was detected"},
      {"measurement": "survival benefit vs vehicle-treated mice", "setting": "[5]; 25 mg/kgBW i.p. bi-weekly", "result": "Over 60%"},
      {"measurement": "overall survival (OS) vs vehicle", "setting": "[5]; 25 mg/kgBW i.p. bi-weekly x3, from 22 weeks", "result": "significant improvement; also recorded: improvement in overall survival; also recorded: improved overall survival"},
      {"measurement": "survival benefit vs vehicle-treated mice", "setting": "[6]; 25 mg/kgBW i.p. bi-weekly", "result": "Over 60%"},
      {"measurement": "treated mice surviving at least 8 weeks after the end of the therapy", "setting": "[6]; 25 mg/kgBW i.p. bi-weekly x6", "result": "Over 60%"},
      {"measurement": "overall survival (OS) vs vehicle", "setting": "[6]; 25 mg/kgBW i.p. bi-weekly x6, from 8 weeks of age", "result": "significant increase in OS; also recorded: improvement in overall survival; also recorded: increased overall survival"},
      {"measurement": "time to tumor development", "setting": "[7]; TRAMPxFVB mice, 25 mg/kgBW every two weeks", "result": "delays time to tumor development"},
      {"measurement": "treated mice with no signs of palpable tumor", "setting": "[7]; TRAMPxFVB, 11 weeks after treatment discontinued (29 week old animals), 25 mg/kgBW once bi-weekly", "result": "over 40%"},
      {"measurement": "Androgen Receptor level (Western blot)", "setting": "[8]", "result": "not due to down-regulation of the Androgen Receptor"},
      {"measurement": "tolerability (overt signs of toxicity, abnormal behavior, body weight loss)", "setting": "[9]", "result": "well-tolerated"}
    ]},
    {"smiles": "CCNCCCNCCCNCCCNCC", "note": "[BE-3-3-3, bisethylnorspermine]", "values": [
      {"measurement": "DCF/DNA Fluor, units", "setting": "[1]; 1 μM BE-3-3-3", "result": 0.67, "unit": "units"},
      {"measurement": "cellular ROS levels (DCF/DNA fluorescence, percent of control)", "setting": "[1]; DU-145, increasing BE-3-3-3 concentration, 72 hours, non-cytotoxic dose <1 μM", "result": "increases oxidative stress; also recorded: increases cellular ROS levels"},
      {"measurement": "DCF/DNA Fluor, units", "setting": "[2]; 1 μM BE-3-3-3", "result": 3.19, "unit": "units"}
    ]},
    {"smiles": "C[C@]1(O)CC[C@H]2[C@@H]3CCC4=CC(=O)CCC4=C3C=C[C@@]21C", "note": "[R1881, reference compound]", "values": [
      {"measurement": "oxidative stress", "setting": "[2]; 0.05 nM R1881", "result": "no increase in oxidative stress"},
      {"measurement": "DCF/DNA Fluor, units", "setting": "[2]; 1 nM R1881", "result": 3.34, "unit": "units"},
      {"measurement": "increase in SSAT gene expression vs untreated control cells (qRT-PCR)", "setting": "[10]", "result": 50, "unit": "fold"},
      {"measurement": "SSAT over-expression over the control (DNA microarray)", "setting": "[11]", "result": "more than 10 fold"},
      {"measurement": "N-acetyl spermidine level", "setting": "[3]; LNCaP, 1 nM R1881, 96 hours", "result": "increases"},
      {"measurement": "N-acetylspermine level", "setting": "[3]; LNCaP, 1 nM R1881, 96 hours", "result": "increases"},
      {"measurement": "putrescine level", "setting": "[3]; LNCaP, 1 nM R1881, 96 hours", "result": "significantly increases"},
      {"measurement": "spermidine level", "setting": "[3]; LNCaP, 1 nM R1881, 96 hours", "result": "significantly increases"},
      {"measurement": "spermine level", "setting": "[3]; LNCaP, 1 nM R1881, 96 hours", "result": "decreases"}
    ]},
    {"smiles": "Cc1c(C)c2c(c(C)c1O)CC[C@@](C)(CCC[C@H](C)CCC[C@H](C)CCCC(C)C)O2", "note": "[Vitamin E, α-tocopherol]", "values": [
      {"measurement": "DCF/DNA Fluor, units", "setting": "[2]; 1 nM R1881 + 15 μM Vitamin E", "result": 1.80, "unit": "units"}
    ]}
  ]
}
